# Data reported in US11046753B2, “Antibody composition and buffer system therefor” (INNOVA BIOSCIENCES LTD, priority 2013, dated 2021).
# “Also recorded” adds a separate entry of the source.
# Legend:
# [1] = Carbodiimide (EDC)-mediated conjugation of goat anti-rabbit IgG to carboxylated gold nanoparticles in presence of additive, read by lateral flow assay
# Experimental: Molecules were tested initially at pH 5 in EDC-mediated reactions with carboxylated gold particles (InnovaCoat GOLD, Innova Biosciences). Potentially interesting molecules from this screening exercise were further evaluated in NHS ester reactions, isothiocyanate reactions and thiolation reactions involving iminothiolane. All of these reactions are widely used in the antibody conjugation field and all would be expected to suffer from interference in the presence of glycine.
# Lateral flow test strips (4 mm wide) were prepared from nitrocellulose membrane (Millipore Hi Flow plus 90) striped with goat anti-rabbit IgG (test line) and biotin-BSA (control line). Strips were housed in plastic cartridges and samples of gold conjugate (80 ul) were added to the sample pad. Cartridges were allowed to stand for 30 min and then read using a ESE-Quant GOLD reader—QIAGEN. Each sample was spiked with a fixed amount of streptavidin-gold (Innova biosciences—Product code: 250-0200), which binds to the control line, to check that each test strip had run correctly and that test line data was valid.
# 10 μg of goat anti-rabbit IgG (GAR) was used per ml of coated 40 nm nanoparticles with carboxyl functionality (InnovaCoat GOLD, Innova Biosciences) at […] in the presence of additives at 50 mM final concentration. Typically reactions were set up with the following additions: 40 μl of 40 nm InnovaCoat (carboxylated) gold nanopartcles, were incubated 5 minutes with 4 μl 0.1 mg/ml GAR, 20 μl water, and 80 μl of 100 mM MES buffer containing 100 mM of additive, pH 5.0. Next, 16 μl of 1 mM EDC was added and after 10 min incubation at 22° C., 20 μl of 10×TBS/1% Tween20 and 20 μl of water was added to give 2 OD conjugate.
# Gold conjugates were mixed when required with rabbit IgG ((final concentration 50 ng/ml) at 22° C. Conjugates were 0.2 OD final concentration (i.e. 1/10 dilution from stock conjugates). Samples were run in triplicate on lateral flow test strips as described in Example 1.
# [2] = 25° C., cited from earlier work; for pKa (COOH): Table 1; for pKa of buffer: neutralisation / catch / wash buffers
# [3] = Lightning-Link fluorescein conjugation of goat anti-rabbit IgG in presence of additive, fluorescence assay; conditions: 50 mM additive; for % of control: conjugate 1/100 dilution, additive-free control 100%
# Experimental: (§1) Black 96-well plates (Greiner Bio-One (code 655077)) were incubated with 50 ul rabbit IgG (1 ug/well) overnight at 4° C. The plates were blocked with TBS/0.1% BSA for 1 hour at room temperature and washed five times with TBS (wash buffer). Fluorescent antibody conjugates were serially diluted in TBS/0.1% BSA and 50 ul aliquots were added to wells in triplicate. After incubation at room temperature for 1 hour, the plate was washed five times and fluorescence emission was read in using a Tecan Infinite M200 plate reader with i-Control 1.4 software with the appropriate excitation/emission settings (fluorescein, 490 nm/535 nm; phycoeythrin, 535 nm/575 nm. Fluorescence data was plotted as a function of conjugate dilution. To compare results for additives tested in different experiments the data were transformed into a percentage of a control value (i.e. the signal for conjugate prepared in the absence of any test additive).
# Reactions were carried out according to the manufacturer's standard protocol except that the additives were included at up to 50 mM concentration in conjugation reactions of Goat-anti-rabbit IgG using fluorescein Lightning-Link kit (product code 707-0010, Innova Biosciences, UK). Conjugates were tested according to the protocol described in Example 2.
# [4] = Effect of additives on the thiolation reagent 2-iminothiolane (thiol release, DTNB, A405); conditions: 50 mM additive, pH 8.0, 30 minutes
# Experimental: 20 μl of 2 mM 2-iminothiolane was added to each well and mixed quickly and the absorbance values were read at 405 nm every minute for 30 minutes using a Tecan Infinite M200 plate reader with i-Control 1.4 software. […] In control reaction, there is a steady linear increase in absorbance as the reagent is hydrolysed by water. […] The rising baseline can be attributed to the known sensitivity of 2-iminothiolane to hydrolysis at alkaline pH values.
# [5] = Lightning-Link phycoerythrin conjugation of goat anti-rabbit IgG in presence of tricine, fluorescence assay
# Experimental: as §1
# The method was as described in Example 4, except that the Goat anti-rabbit IgG was conjugated to the fluorescent protein phycoerythrin (PE) using a Lightning-Link PE conjugation kit (703-0005). Tricine has little effect on Lightning-Link PE conjugation reactions in the range of concentrations tested. In this case the conjugate prepared at the highest concentration of tricine (50 mM) gave a signal that was 91% of control value in the absence of additive.
# [6] = Degree of ionisation of the acid group at pH 5 (Henderson-Hasselbach); assay type: physicochemical
# [7] = additive 50 mM final, MES pH 5.0, EDC, lateral flow test line signal
Compound,"% of Signal [1, 7] [%]","interference in carbodiimide-mediated antibody-gold nanoparticle conjugation reaction ([1]; pH 5, EDC)",pKa (COOH) [2],also measured
"[N-]=[N+]=[N-].[Na+] [0.01% NaN3, sodium azide]",26,caused interference,pKa1 = 4.8,
"CN(C)CC(=O)O [N,N- Dimethylglycine, N,N-dimethylglycine]",110,little or no effect,pKa1 = 2.06,interference in Lightning-Link fluorescein conjugation reaction [3]: little or no effect; % of control [3]: 96%
"CC(=O)[O-].[Na+] [Na Acetate, sodium acetate]",,,,% of Signal ([1]; pH 5): 37%; interference in carbodiimide-mediated antibody-gold nanoparticle conjugation reaction ([1]; pH 5): significant interference but not totally abolishing the conjugation reaction
NC(CO)(CO)CO [Tris],19,severe interference,pKa1 = 8.07,
NCCC(=O)O [Beta-Alanine],92,little or no effect,pKa = 3.6,
Citric Acid,0,severe interference,,release of thiols from 2-iminothiolane versus control ([4]; listed as Citric acid): no effect; release of thiols from 2-iminothiolane versus control ([4]; listed as citric acid): no increase in this rate
"O=C(O)CNC(CO)(CO)CO [Tricine, N-tris(hydroxymethyl)methylglycine]",105,little or no effect,pKa1 = 2.3,% of control ([5]; 50 mM tricine): 91%; interference in Lightning-Link phycoerythrin conjugation reaction ([5]; up to 50 mM): little effect; also recorded: modest degree of interference; pKa of the carboxyl (acid) group [2]: ~2.3
O=C(O)c1cccnc1 [Nicotinic Acid],73,significant interference; also recorded: partial interference,pKa1 = 2.201,pKa of the carboxyl (acid) group [2]: 2.2
"CNCC(=O)O [N-Methylglycine (Sarcosine), N-methylglycine]",93,little or no effect,pKa1 = 2.36,
"NCCCC(=O)O [GABA (Υ-Aminobutyric Acid), gamma-amino butyric acid]",26,significant interference; also recorded: significantly inhibits,pKa1 = 4.23,acid groups ionised (COO−) [6]: 85.5%
O=C(O)CCC(=O)O [Succinic Acid],0,severe interference,,
"O=C(O)c1ccccn1 [2-Picolinic Acid, 2-pyridinecarboxylic acid]",100,,pKa1 = 5.52,"interference in carbodiimide-mediated antibody-gold nanoparticle conjugation reaction ([1]; pH 5, EDC, listed as 2-picolinic acid): little or no effect; interference in carbodiimide-mediated antibody-gold nanoparticle conjugation reaction ([1]; pH 5, EDC, listed as picolinic acid): without effect; interference in Lightning-Link fluorescein conjugation reaction [3]: modest interference; % of control [3]: 83%; pKa of the amine group [2]: 5.52"
CCC(N)C(=O)O (racemic) [DL-2 Aminobutyric Acid],101,,pKa = 2.29,"interference in carbodiimide-mediated antibody-gold nanoparticle conjugation reaction ([1]; pH 5, EDC, listed as DL-2-aminobutyric acid): little or no effect; interference in carbodiimide-mediated antibody-gold nanoparticle conjugation reaction ([1]; pH 5, EDC, listed as DL-2 amino butyric acid): no interference; pKa of the carboxyl (acid) group [2]: 2.29"
CC(C)(C)C(=O)O [Pivalic Acid],53,significant interference but not totally abolishing the conjugation reaction; also recorded: partial inhibition,,acid groups ionised (COO−) [6]: ~50%
"O=C(O)C1CCCCC1 [Cyclohexane-carboxylic acid, cyclohexane carboxylic acid]",71,significant interference but not totally abolishing the conjugation reaction,,
"O=S(=O)(O)CCCCN1CCN(CCO)CC1 [HEPBS, N-(2-Hydroxyethyl)piperazine-N′-(4-butanesulfonic acid)]",,,,pKa of buffer [2]: 8.3
"O=S(=O)(O)CCN1CCN(CCS(=O)(=O)O)CC1 [PIPES, piperazine-N,N′-bis(2-ethanesulfonic acid)]",,,,pKa of buffer [2]: 6.76
"O=C(O)C(Cl)(Cl)Cl [TCA, trichloroacetic acid]",0,severe interference,,acid groups ionised (COO−) [6]: essentially fully ionised
"O=C(O)c1c(O)cc(O)cc1O [2,4,6-Trihydroxy-benzoic Acid, 2,4,6-trihydroxybenzoic acid]",0,severe interference,pKa1 = 1.68,
O=C(O)[C@@H]1CCCN1 [Proline],94,little or no effect,,interference in Lightning-Link fluorescein conjugation reaction [3]: significant interference; % of control [3]: 53%
CC(=O)O [acetic acid],,greater interference in carbodiimide reactions than glycine,,
Phosphate,,caused interference,,
"C[N+](C)(C)CC(=O)[O-] [Glycine betaine, N,N,N-trimethylglycine]",96,little or no effect,pKa = 1.83,interference in Lightning-Link fluorescein conjugation reaction [3]: little or no effect; % of control [3]: 98%; release of thiols from 2-iminothiolane versus control ([4]; listed as betaine): no increase in this rate; release of thiols from 2-iminothiolane versus control ([4]; listed as glycine betaine): without effect; pKa of the carboxyl (acid) group [2]: 1.8
C[C@H](N)C(=O)O [Alanine],100,little or no effect,,
